The results in this text go back to patent US9023817B2, “Use of albiflorin for anti-depression” (priority 2009, dated 2015).

For series [1], the system named is rats with chronic stress induced depression model. As to the kind of experiment: Jump stair test, chronic stress induced depression. The series is classed as in vivo, SD rats. To be noted: 3.5 mg/kg/day gavage for 21 days, 5 minutes. How it is done:
The gavage was carried out along with the model establishment, once a day, for 21 days. […] Referring to the methods in the literature (Xu Jing, Li Xiaoqiu, Establishment and evaluation of the model of chronic stress induced depression, Chinese Journal of Behavioral Medical Science, 2003, 12(1): 14 16), the model was established (i.e., establishing animal model of anti-depression by means of CUMS): the foot electric shock (voltage: […] (5 minutes), drying at 45° C. (5 minutes), tail nipping (1 min), wet feeding (wet mat), reversed day and night (24 hours), fasting (24 hours), water deprivation (24 hours) were randomly scheduled within 21 days, one kind of stimulations was given for each day, except for the animals of vehicle group, the others were separately caged with free diet, at the room temperature of (24±1)° C., with the relative humidity of (60±10)%. […] A wooden platform (height: 5 cm, diameter: 8 cm) was placed into the box at the left back corner. Animals were placed into the response box to adapt to the environment for 3 minutes, and then the box was immediately electrified with […] alternating current, the normal response of the animal which suffered from electric shock was to jump onto the platform in order to avoid such harmful stimulation. Most animals were likely to jump down to the copper railings again or for several times, and then quickly jump back to the platform after suffering from the electric shock, being trained like this for 5 minutes, the times that the rats suffered from the electric shock were designated as error times. The test was carried out again after 24 hours, rats were placed on the platform and the box was charged, timing and recording the error times for 5 minutes. All parameters to be tested were expressed as Mean±SD (X±s), and tested by means of analysis of variance (ANOVA) in SPSS 12.0 software (purchased from SPSS Inc., USA), p<0.05 means that there was a significant difference.

Another series relates to ICR mice. The series can be described thus: Acute toxicity test of Albiflorin. It is filed as in vivo. How it is done:
SFP level ICR mice were administered with Albiflorin at a dose of 8.4 g/kg, the observation time was 14 days.
The nature and rate of breath, behaviors (especially whether there was any vomit-causing phenomenon), actions, color and tension of fur, abdominal shape, hardness of feces, body weight and the like were observed.

Series [2] has as its system serotonin in the brain of rat. The series can be described thus: Serotonin in the brain of rat with chronic stress (HPLC-ECD, prefrontal cortex). The series is classed as in vivo, SD rats. To be noted: 3.5 mg/kg/d gavage for 21 days. How it is done:
After being fed without water for 24 hours, SD rats were administered with 1% aqueous sucrose, the consumption of aqueous sucrose was measured for 1 hour. The rats were randomly divided into six groups (n=12 for each group) according to the consumptions of aqueous sucrose, i.e. vehicle group, model group, positive control group of Fluoroxetine Hydrochloride (2.5 mg/kg/d), high-dose group (14 mg/kg/day), medium-dose group (7 mg/kg/day), and low-dose group (3.5 mg/kg/day) of Albiflorin. The gavage was carried out along with the model establishment, once a day, for 21 days. Each group was administered at a dose of 1.0 ml/100 g weight, and weighed once a week.
The rats were fed at 6/cage as vehicle group, with normal diets and drinking water, and without any stimulation.
The rats were fed at 1/cage as the other five groups, and subjected to unpredicted stress stimulations for 21 days, including: swimming in ice water, drying, tail nipping, wet feeding, reversed day and night, fasting, water deprivation and the like. One kind of stimulations was randomly given for each day.
The animal was executed by decapitation, the brain of it was quickly stripped on the ice, the prefrontal cortex was taken out, then placed into frozen tissue tube after weighting, rapidly frozen with liquid nitrogen, and placed into the refrigerator at −70° C. until test.

The test system of series [3] is rats with chronic stress induced depression model. As to the kind of experiment: Open-field test, chronic stress induced depression. The series is classed as in vivo, SD rats. To be noted: 3.5 mg/kg/day gavage for 21 days; 3 minutes. How it is done:
(§1) The gavage was carried out along with the model establishment, once a day, for 21 days. […] Referring to the methods in the literature (Xu Jing, Li Xiaoqiu, Establishment and evaluation of the model of chronic stress induced depression, Chinese Journal of Behavioral Medical Science, 2003, 12(1): 14 16), the model was established (i.e., establishing animal model of anti-depression by means of CUMS): the foot electric shock (voltage: […] (5 minutes), drying at 45° C. (5 minutes), tail nipping (1 min), wet feeding (wet mat), reversed day and night (24 hours), fasting (24 hours), water deprivation (24 hours) were randomly scheduled within 21 days, one kind of stimulations was given for each day, except for the animals of vehicle group, the others were separately caged with free diet, at the room temperature of (24±1)° C., with the relative humidity of (60±10)%. The open-field device was of 40 cm in height, 80 cm in both length and width, without cap, the inner walls and the bottom of the device are black, and the bottom was divided into 25 squares with equal area. The numbers of squares that the animals pass through were designated as the score of horizontal movement, and the numbers of standing (with the forelegs above 1 cm away from the ground) were designated as the score of vertical movement. Each animal was measured for one time, 3 minutes for each measurement. All parameters to be tested were expressed as Mean±SD (X±s), and tested by means of analysis of variance (ANOVA) in SPSS 12.0 software (purchased from SPSS Inc., USA), p<0.05 means that there was a significant difference.

For series [4] the test system is unchanged. The series can be described thus: Body weights of rats with chronic stress induced depression (CUMS). It is filed as in vivo, SD rats. How it is done: as §1, with “(60±10)%.” for “(60±10)%. The open-field device was of 40 cm in height, 80 cm in both length and width, without cap, the inner walls and the bottom of the device are black, and the bottom was divided into 25 squares with equal area. The numbers of squares that the animals pass through were designated as the score of horizontal movement, and the numbers of standing (with the forelegs above 1 cm away from the ground) were designated as the score of vertical movement. Each animal was measured for one time, 3 minutes for each measurement.”

Take `C[C@]12C[C@@H](O)[C@@H]3C[C@@]1(O[C@@H]1O[C@H](CO)[C@@H](O)[C@H](O)[C@H]1O)[C@@]3(COC(=O)c1ccccc1)C(=O)O2` [Albiflorin]: the “Error times in training period” value in series [1] is on record as 2.25 ± 1.42. The “Error times in testing period” value in series [1] (after 24 hours) turned out to be 2.08 ± 1.31. Further, in the series with ICR mice (8.4 g/kg body weight, mice, by gavage), the “safe dosage as multiple of the clinical dosage” value is “approximately 600 times”. The “body weight compared with the vehicle group” value with ICR mice (8.4 g/kg by gavage, Day 7 and Day 14) is listed as “without significant difference”. In addition, the “abnormal symptoms and death” value with ICR mice (8.4 g/kg by gavage, observation for 14 days) is “neither any abnormal symptom nor any death was found”. For the same compound, in the series on ICR mice (mice, by gavage), the “dosage at which still safe” value stood at 8.4 g/kg body weight. In series [2], this compound yielded a 5-HT of 188.43 ± 67.91. Besides, the “Score of horizontal movement” value in series [3] is reported as 21.42 ± 20.38. Besides, the “Score of vertical movement” value in series [3] is recorded as 4.67 ± 6.87. For the same compound, the body weights was determined as 256.83 ± 11.49 g in series [4] (3.5 mg/kg/day gavage, Day 0); 265.65 ± 11.23 g in series [4] (3.5 mg/kg/day gavage, Day 7); 270.75 ± 18.15 g in series [4] (3.5 mg/kg/day gavage, Day 14); 271.07 ± 19.06 g in series [4] (3.5 mg/kg/day gavage, Day 21); 250.18 ± 13.45 g in series [4] (7 mg/kg/day gavage, Day 0); 265.65 ± 12.44 g in series [4] (7 mg/kg/day gavage, Day 7). Also, the body weights in series [4] (14 mg/kg/day gavage, Day 0) is reported as 255.84 ± 11.69 g; in series [4] (14 mg/kg/day gavage, Day 7), 268.11 ± 17.50 g.
